What was measured:
[1] = target: T1, Mushroom tyrosinase (Agaricus bisporus, UniProt C7FF04); test: Tyrosinase inhibitory activity assay (L-DOPA, absorbance 475 nm); assay type: biochemical
T1 construct: purchased Sigma-Aldrich (Shanghai, China)
Protocol: The tyrosinase inhibitory activities of compounds 5a~5z were determined according to previous reports. In brief, 10 μL of compound was added into 140 μL of tyrosinase, incubated for 5 min at room temperature. Then, 50 μL of L-DOPA was added, followed by the measurement of absorbance change at 475 nm. The inhibition rate at different concentrations was calculated and compared to the blank control.

[2] = target: T2, tyrosinase (Agaricus bisporus, UniProt C7FF04); test: Inhibition kinetics (Lineweaver–Burk plots); assay type: biochemical, mushroom
T2 construct: purchased Sigma-Aldrich (Shanghai, China)
Protocol: To understand the inhibition mechanism of this kind of compound on tyrosinase, the inhibition kinetics of the preferable compound 5w were investigated. […] With the increasing concentrations of 5w, the Y-intercept of corresponding lines increased and the X-intercept decreased, meaning the decrease of Vmax and Km.
The kinetics studies of 5w were conducted using the above experimental procedure. The absorbance changes in the mixture containing 5w (0, 4, 8, and 16 μM), tyrosinase (66.7 U/mL), and L-DOPA (2, 4, 6, and 8 mM) were recorded, respectively. The data were analyzed using Lineweaver–Burk plots.
Target sequence in this assay (C7FF04 1-392 limits assumed): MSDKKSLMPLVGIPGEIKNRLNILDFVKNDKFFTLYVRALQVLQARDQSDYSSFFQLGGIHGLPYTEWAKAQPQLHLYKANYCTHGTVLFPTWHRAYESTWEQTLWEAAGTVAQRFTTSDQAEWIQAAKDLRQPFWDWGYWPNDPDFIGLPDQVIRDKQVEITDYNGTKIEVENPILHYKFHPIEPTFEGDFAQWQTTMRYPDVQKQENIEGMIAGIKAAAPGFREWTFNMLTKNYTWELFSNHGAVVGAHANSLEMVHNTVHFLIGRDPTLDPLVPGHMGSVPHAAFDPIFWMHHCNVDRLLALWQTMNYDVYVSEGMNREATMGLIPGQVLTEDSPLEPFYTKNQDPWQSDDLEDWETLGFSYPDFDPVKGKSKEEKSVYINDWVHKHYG

[3] = target: T2, tyrosinase; test: Fluorescence quenching titration (Stern–Volmer); assay type: binding, mushroom
Protocol: Fluorescence quenching, an effective method for monitoring the binding of a compound to its target protein, was operated to examine the binding of compound 5w with tyrosinase.
For a further understanding of the binding process of compound 5w with tyrosinase, the fluorescence quenching manner was assayed using the Stern–Volmer equation. In the Stern–Volmer plots of compound 5w (Figure 3D), the lines at different temperatures presented a good linear, which illustrated only one quenching manner in their binding process. Although the quenching constant (Ksv) values were slightly proportional to temperature, the quench rate constant (Kq) values at different temperatures were all higher than 2 × 10^10 L mol^−1 S^−1, which is the maximum scattering collision quenching constant (Table 2). […] In addition, the number of binding sites (n) was obtained to be about one, meaning there was only one binding site between compound 5w and tyrosinase (Table 2).
According to a previous report, the fluorescence quenching titration was run. In total, 1 μL of 5w solution was progressively titrated into 2 mL of tyrosinase (0.17 mg/mL), followed by fluorescence spectra determination (λex = 280 nm) at temperatures of 298, 303, and 308 K, respectively. The quenching parameters were obtained using the Stern–Volmer equation.
Target sequence in this assay (C7FF04 1-392 limits assumed): as above

[4] = target: T2, tyrosinase; test: CD spectra, secondary structure content of tyrosinase; parameters: species or system mushroom
Protocol: CD spectra, one widely used method for determining the secondary structure of protein, were applied to assay the effects of 5w on the conformation change of tyrosinase. The CD spectra of the tyrosinase–compound 5w mixture were monitored and two negative characteristic bands around 210 and 222 nm appeared (Figure 4), which represented typical features of α-helixes.
The CD spectra of tyrosinase (33 μM) and tyrosinase–compound 5w mixture were measured at room temperature, respectively, based on previous reports. The test wavelengths were 195~250 nm.
Target sequence in this assay (C7FF04 1-392): as the sequence (C7FF04 1-392 limits assumed) above

[5] = target: T2, tyrosinase; test: Three-dimensional fluorescence spectra; parameters: species or system mushroom; conditions: 5w 8.5 μM
Protocol: Three-dimensional fluorescence spectra were employed to monitor the effects of compound 5w on the conformation and microenvironment changes in tyrosinase. In the 3D fluorescence spectra of tyrosinase (Figure 5A), two characteristic peaks 1 and 2 appeared, which corresponded to Tyr and Trp residues and polypeptide strand transition, respectively.
Based on a previous report, the 3D fluorescence spectra of tyrosinase (0.17 mg/mL) and tyrosinase–compound 5w mixture were measured, respectively, at room temperature. The test wavelengths were 200–400 nm.
Target sequence in this assay (C7FF04 1-392 limits assumed): as above

[6] = tested on: B16F10 cells; test: Cell cytotoxicity (MTT); assay type: cell-based; conditions: 4~32 μM, 48 h
Protocol: The effects of compound 5w and kojic acid on the cells’ viability were determined using the MTT method. B16F10 cells (5000 cells/well) were seeded into the 96-well plate for 24 h, followed by the treatment of compound 5w or kojic acid (4~32 μM) for another 48 h. Then, MTT solution (0.5 mg/mL) was added and incubated for 4 h. DMSO (100 μL) was used to dissolve the violet precipitates, and then the mixture was measured for its absorbance at 570 nm.

[7] = tested on: tyrosinase activity in B16F10 cells; test: Tyrosinase activity in B16F10 cells; assay type: cell-based; conditions: 16 and 32 μM
Protocol: The tyrosinase inhibitory activity of 5w in B16F10 cells was determined. B16F10 cells (1 × 10^5 cells/well) were seeded into the 6-well plate for 24 h and subsequently treated with compound 5w or kojic acid for another 48 h. Then, the harvested cells were suspended into the appropriate amount of Triton X-100 (1%) and frozen for 1 h at −80 °C. After it had thawed, the mixture was centrifuged to collect the supernatant. Then, its protein concentration was determined using a BCA Kit. After 20 μL of L-DOPA (10 mM) was added into 80 μL of protein solution, the absorbance change at 475 nm was measured.

[8] = tested on: melanogenesis in B16F10 cells; test: Melanin content in B16F10 cells; assay type: cell-based; conditions: 16 and 32 μM
Protocol: B16F10 cell treatment was consistent with the above method. The harvested cells were suspended into NaOH (1 M, 200 μL). After boiling for 1 h, the mixture was measured to determine the absorbance change at wavelength of 405 nm.

[9] = tested on: tyrosinase activity in zebrafish; test: Tyrosinase activity in zebrafish; assay type: in vivo
Protocol: The embryos treated with compound 5w or kojic acid were lysed in PBS, followed by centrifugation to obtain the supernatant. The appropriate amount of supernatant, equal L-DOPA (5 mg/mL), was added and the absorbance at 475 nm was determined.

[10] = tested on: melanogenesis in zebrafish; test: Melanin content in zebrafish (microscope, Image J); assay type: in vivo
Protocol: The embryos treated with compound 5w or kojic acid were observed under a microscope and the melanin content was assayed using Image J software.

T1 sequence (C7FF04 1-392): as the sequence (C7FF04 1-392 limits assumed) above

N#Cc1cccc(/C=C2\SC(=O)N(CC(=O)NCCc3c[nH]c4ccccc34)C2=O)c1 [5w]
IC50 [1]: 11.2 µM | inhibition at 32 µM ([1]; initial concentration of 32 μM): > 70% | inhibition type ([2]; Lineweaver–Burk plots): mixed-type tyrosinase inhibitor | Ki ([2]; from plots of slope vs. inhibitor concentration, read-out: inhibition constant (Ki)): 11.7 µM | fluorescence quenching process [3]: static quenching process | KSV ([3]; T 298 K): 3.77 ×10^4 Lmol^−1 | Kq ([3]; T 298 K): 3.77 ×10^12 Lmol^−1 | n (number of binding sites) ([3]; T 298 K): 0.72 | KSV ([3]; T 303 K): 3.84 ×10^4 Lmol^−1 | Kq ([3]; T 303 K): 3.84 ×10^12 Lmol^−1 | n (number of binding sites) ([3]; T 303 K): 0.74 | KSV ([3]; T 308 K): 4.47 ×10^4 Lmol^−1 | Kq ([3]; T 308 K): 4.47 ×10^12 Lmol^−1 | n (number of binding sites) ([3]; T 308 K): 0.82 | quench rate constant (Kq) ([3]; at different temperatures (298, 303, 308 K)): higher than 2 × 10^10 L mol^−1 S^−1 | Random Coil (%) ([4]; [Enzyme]: [5w] 1: 1): 32.5% | α-Helix (%) ([4]; [Enzyme]: [5w] 1: 1): 8.8% | β-Sheet (%) ([4]; [Enzyme]: [5w] 1: 1): 33.6% | β-Turn (%) ([4]; [Enzyme]: [5w] 1: 1): 19.9% | Random Coil (%) ([4]; [Enzyme]: [5w] 1: 2): 34.5% | α-Helix (%) ([4]; [Enzyme]: [5w] 1: 2): 8.9% | β-Sheet (%) ([4]; [Enzyme]: [5w] 1: 2): 33.1% | β-Turn (%) ([4]; [Enzyme]: [5w] 1: 2): 20.0% | Random Coil (%) ([4]; [Enzyme]: [5w] 1: 3): 35.5% | α-Helix (%) ([4]; [Enzyme]: [5w] 1: 3): 9.0% | β-Sheet (%) ([4]; [Enzyme]: [5w] 1: 3): 32.7% | β-Turn (%) ([4]; [Enzyme]: [5w] 1: 3): 20.1% | 3D fluorescence characteristic peaks 1 and 2 of tyrosinase [5]: reduced significantly accompanied by a slight shift | effect on cells' viability [6]: obvious effects | cellular anti-tyrosinase activity compared with kojic acid [7]: obvious higher | cellular tyrosinase activity ([7]; 48 h): could inhibit | anti-melanogenesis activity compared with kojic acid [8]: obvious higher | melanogenesis in B16F10 cells ([8]; 48 h): could inhibit | anti-tyrosinase activity in zebrafish compared with kojic acid ([9]; concentration of 10 μM): higher anti-tyrosinase activity than kojic acid | tyrosinase activity in zebrafish ([9]; zebrafish embryos): could reduce the tyrosinase activity in zebrafish | decrease in grayscale values compared with kojic acid ([10]; Image J): displayed a higher decrease | grayscale values of whole embryos ([10]; Image J, compared to control embryo): decrease in grayscale values | pigmentation of embryo (eyes, yolk sac, notum) ([10]; embryo photos, compared to control embryo): pigmentation decrease

Source: PMC10673563, “In Vitro and In Vivo Biological Evaluation of Indole-thiazolidine-2,4-dione Derivatives as Tyrosinase Inhibitors” (Molecules, 2023)
